Data reported in PubChem BioAssay (NCI).
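Cultured in 96-well plates, cells were exposed to test compound for 48 hours across five concentrations. Here, GI50 denotes the concentration required for 50% inhibition of growth. Definition used: TGI = concentration required for complete inhibition of growth.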

Legend:
Test in all cases: DTP human tumour cell line panel, 48 h
[1] = test system: K-562 leukemia
[2] = test system: KM12 colon
[3] = test system: HS 578T breast
[4] = test system: BT-549 breast
[5] = test system: MCF7 breast
[6] = test system: HOP-92 NSCLC
[7] = test system: SNB-19 CNS
[8] = test system: RXF 393 renal
[9] = test system: SK-OV-3 ovarian
[10] = test system: NCI-H522 lung
[11] = test system: RPMI-8226 leukemia
[12] = test system: SW-620 colon
[13] = test system: NCI-H460 lung
[14] = test system: MDA-MB-468 breast
[15] = test system: U251 CNS
[16] = test system: HCC-2998 colon
[17] = test system: UACC-257 melanoma
[18] = test system: TK-10 renal
[19] = test system: CCRF-CEM leukemia
[20] = test system: MDA-MB-231 breast
[21] = test system: OVCAR-8 ovarian
[22] = test system: A498 renal
[23] = test system: EKVX NSCLC
[24] = test system: SK-MEL-28 melanoma
[25] = test system: HOP-62 NSCLC
[26] = test system: T-47D breast
[27] = test system: IGROV1 ovarian
[28] = test system: SF-268 CNS

NC(=Nc1ccc(OCCCCCCCCn2cnnn2)cc1)c1ccccc1
TGI [1]: > 55100 nM | GI50 [2]: 423 nM | TGI [2]: > 73100 nM | GI50 [3]: 307 nM | TGI [3]: 48800 nM | GI50 [4]: 836 nM | TGI [4]: 18800 nM | GI50 [5]: 157 nM | TGI [5]: 18900 nM | GI50 [6]: 8000 nM | TGI [6]: 59400 nM | GI50 [7]: 594 nM | TGI [7]: > 100000 nM | GI50 [8]: 216 nM | TGI [8]: 752 nM | GI50 [9]: 439 nM | TGI [9]: 35900 nM | GI50 [10]: 201 nM | TGI [10]: 720 nM | GI50 [11]: 364 nM | TGI [11]: 19600 nM | GI50 [12]: 352 nM | TGI [12]: > 100000 nM | GI50 [13]: 343 nM | TGI [13]: 19000 nM | GI50 [14]: 167 nM | TGI [14]: 695 nM | GI50 [15]: 383 nM | TGI [15]: > 63500 nM | GI50 [16]: 494 nM | TGI [16]: 11700 nM | GI50 [17]: 8360 nM | TGI [17]: > 60000 nM | GI50 [18]: 3060 nM | TGI [18]: > 83700 nM | GI50 [19]: 358 nM | TGI [19]: 38200 nM | GI50 [20]: 439 nM | TGI [20]: 9700 nM | GI50 [21]: 490 nM | TGI [21]: > 64800 nM | GI50 [22]: 17400 nM | TGI [22]: 63400 nM | GI50 [23]: 418 nM | TGI [23]: > 100000 nM | GI50 [24]: 783 nM | TGI [24]: > 49200 nM | GI50 [25]: 439 nM | TGI [25]: 18900 nM | GI50 [26]: 392 nM | TGI [26]: 63200 nM | GI50 [27]: 717 nM | TGI [27]: 21800 nM | GI50 [28]: 6870 nM | TGI [28]: > 79700 nM
